From the supplement of paper PMC10307832

What was measured:
Assay in all cases: relative viability (nuclei count vs DMSO), 5 days (fraction); higher = more cells survive
NCI-H1755 = system: NCI-H1755
Outline: (§1)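 Five library-drug doses in √10 steps were combined with a fixed anchor-drug dose, or a single drug was given alone, by pin tool to lung cancer cell lines in 1536-well plates the day after seeding. Nuclei were stained and counted after 5 days. Relative viability is the nuclei count in treated wells over that in vehicle wells, taken as the median of duplicate plates.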

UMC-11 = system: UMC-11
Outline: as §1

EKVX = system: EKVX
Outline: as §1

LCLC-103H = system: LCLC-103H
Outline: as §1

HCC-44 = system: HCC-44
Outline: as §1

IA-LM = system: IA-LM
Outline: as §1

A549 = system: A549
Outline: as §1

HCC-15 = system: HCC-15
Outline: as §1

EBC-1 = system: EBC-1
Outline: as §1

NCI-H1703 = system: NCI-H1703
Outline: as §1

NCI-H1299 = system: NCI-H1299
Outline: as §1

Calu-6 = system: Calu-6
Outline: as §1

O=c1cc(N2CCOCC2)oc2c(-c3cccc4c3sc3ccccc34)cccc12 + C[C@@H](Oc1cc(-c2cnn(C3CCNCC3)c2)cnc1N)c1c(Cl)ccc(F)c1Cl [Crizotinib] (partner 1 µM)
relative viability (NCI-H1755; first compound 0.01 µM): 0.875 | relative viability (NCI-H1755; first compound 0.03162 µM): 0.812 | relative viability (NCI-H1755; first compound 0.1 µM): 0.838 | relative viability (NCI-H1755; first compound 0.3162 µM): 0.807 | relative viability (NCI-H1755; first compound 1 µM): 0.767 | relative viability (UMC-11; first compound 0.01 µM): 0.69 | relative viability (UMC-11; first compound 0.03162 µM): 0.648 | relative viability (UMC-11; first compound 0.1 µM): 0.592 | relative viability (UMC-11; first compound 0.3162 µM): 0.631 | relative viability (UMC-11; first compound 1 µM): 0.565 | relative viability (EKVX; first compound 0.01 µM): 1.04 | relative viability (EKVX; first compound 0.03162 µM): 0.881 | relative viability (EKVX; first compound 0.1 µM): 1.18 | relative viability (EKVX; first compound 0.3162 µM): 0.915 | relative viability (EKVX; first compound 1 µM): 0.995 | relative viability (LCLC-103H; first compound 0.01 µM): 1.06 | relative viability (LCLC-103H; first compound 0.03162 µM): 0.976 | relative viability (LCLC-103H; first compound 0.1 µM): 1.12 | relative viability (LCLC-103H; first compound 0.3162 µM): 0.958 | relative viability (LCLC-103H; first compound 1 µM): 1.07 | relative viability (HCC-44; first compound 0.01 µM): 0.862 | relative viability (HCC-44; first compound 0.03162 µM): 0.811 | relative viability (HCC-44; first compound 0.1 µM): 0.814 | relative viability (HCC-44; first compound 0.3162 µM): 0.788 | relative viability (HCC-44; first compound 1 µM): 0.776 | relative viability (IA-LM; first compound 0.01 µM): 0.965 | relative viability (IA-LM; first compound 0.03162 µM): 0.694 | relative viability (IA-LM; first compound 0.1 µM): 0.683 | relative viability (IA-LM; first compound 0.3162 µM): 0.732 | relative viability (IA-LM; first compound 1 µM): 0.621 | relative viability (A549; first compound 0.01 µM): 0.771 | relative viability (A549; first compound 0.03162 µM): 0.769 | relative viability (A549; first compound 0.1 µM): 0.746 | relative viability (A549; first compound 0.3162 µM): 0.828 | relative viability (A549; first compound 1 µM): 0.659 | relative viability (HCC-15; first compound 0.01 µM): 0.807 | relative viability (HCC-15; first compound 0.03162 µM): 0.846 | relative viability (HCC-15; first compound 0.1 µM): 0.879 | relative viability (HCC-15; first compound 0.3162 µM): 0.773 | relative viability (HCC-15; first compound 1 µM): 0.764 | relative viability (EBC-1; first compound 0.01 µM): 0.208 | relative viability (EBC-1; first compound 0.03162 µM): 0.227 | relative viability (EBC-1; first compound 0.1 µM): 0.207 | relative viability (EBC-1; first compound 0.3162 µM): 0.221 | relative viability (EBC-1; first compound 1 µM): 0.204 | relative viability (NCI-H1703; first compound 0.01 µM): 0.769 | relative viability (NCI-H1703; first compound 0.03162 µM): 0.604 | relative viability (NCI-H1703; first compound 0.1 µM): 0.918 | relative viability (NCI-H1703; first compound 0.3162 µM): 0.584 | relative viability (NCI-H1703; first compound 1 µM): 0.591 | relative viability (NCI-H1299; first compound 0.01 µM): 0.949 | relative viability (NCI-H1299; first compound 0.03162 µM): 0.954 | relative viability (NCI-H1299; first compound 0.1 µM): 0.973 | relative viability (NCI-H1299; first compound 0.3162 µM): 0.637 | relative viability (NCI-H1299; first compound 1 µM): 0.923 | relative viability (Calu-6; first compound 0.01 µM): 0.858 | relative viability (Calu-6; first compound 0.03162 µM): 0.857 | relative viability (Calu-6; first compound 0.1 µM): 0.793 | relative viability (Calu-6; first compound 0.3162 µM): 0.759 | relative viability (Calu-6; first compound 1 µM): 0.777

CCN(CC)CCCCNc1ncc2cc(-c3cc(OC)cc(OC)c3)c(NC(=O)NC(C)(C)C)nc2n1 + C[C@@H](Oc1cc(-c2cnn(C3CCNCC3)c2)cnc1N)c1c(Cl)ccc(F)c1Cl [Crizotinib] (partner 1 µM)
relative viability (NCI-H1755; first compound 0.01 µM): 0.928 | relative viability (NCI-H1755; first compound 0.03162 µM): 0.94 | relative viability (NCI-H1755; first compound 0.1 µM): 1.17 | relative viability (NCI-H1755; first compound 0.3162 µM): 0.984 | relative viability (NCI-H1755; first compound 1 µM): 0.892 | relative viability (UMC-11; first compound 0.01 µM): 0.691 | relative viability (UMC-11; first compound 0.03162 µM): 0.459 | relative viability (UMC-11; first compound 0.1 µM): 0.636 | relative viability (UMC-11; first compound 0.3162 µM): 0.805 | relative viability (UMC-11; first compound 1 µM): 0.554 | relative viability (EKVX; first compound 0.01 µM): 1.21 | relative viability (EKVX; first compound 0.03162 µM): 0.924 | relative viability (EKVX; first compound 0.1 µM): 1.04 | relative viability (EKVX; first compound 0.3162 µM): 0.841 | relative viability (EKVX; first compound 1 µM): 0.664 | relative viability (LCLC-103H; first compound 0.01 µM): 1.11 | relative viability (LCLC-103H; first compound 0.03162 µM): 1.04 | relative viability (LCLC-103H; first compound 0.1 µM): 1.07 | relative viability (LCLC-103H; first compound 0.3162 µM): 1.05 | relative viability (LCLC-103H; first compound 1 µM): 1.05 | relative viability (HCC-44; first compound 0.01 µM): 0.775 | relative viability (HCC-44; first compound 0.03162 µM): 0.855 | relative viability (HCC-44; first compound 0.1 µM): 0.853 | relative viability (HCC-44; first compound 0.3162 µM): 0.971 | relative viability (HCC-44; first compound 1 µM): 0.946 | relative viability (IA-LM; first compound 0.01 µM): 0.766 | relative viability (IA-LM; first compound 0.03162 µM): 0.629 | relative viability (IA-LM; first compound 0.1 µM): 1.02 | relative viability (IA-LM; first compound 0.3162 µM): 0.97 | relative viability (IA-LM; first compound 1 µM): 0.932 | relative viability (A549; first compound 0.01 µM): 0.782 | relative viability (A549; first compound 0.03162 µM): 0.854 | relative viability (A549; first compound 0.1 µM): 0.961 | relative viability (A549; first compound 0.3162 µM): 0.805 | relative viability (A549; first compound 1 µM): 0.655 | relative viability (HCC-15; first compound 0.01 µM): 0.919 | relative viability (HCC-15; first compound 0.03162 µM): 0.853 | relative viability (HCC-15; first compound 0.1 µM): 0.871 | relative viability (HCC-15; first compound 0.3162 µM): 1.25 | relative viability (HCC-15; first compound 1 µM): 0.699 | relative viability (EBC-1; first compound 0.01 µM): 0.209 | relative viability (EBC-1; first compound 0.03162 µM): 0.189 | relative viability (EBC-1; first compound 0.1 µM): 0.242 | relative viability (EBC-1; first compound 0.3162 µM): 0.213 | relative viability (EBC-1; first compound 1 µM): 0.187 | relative viability (NCI-H1703; first compound 0.01 µM): 0.495 | relative viability (NCI-H1703; first compound 0.03162 µM): 0.584 | relative viability (NCI-H1703; first compound 0.1 µM): 0.986 | relative viability (NCI-H1703; first compound 0.3162 µM): 0.586 | relative viability (NCI-H1703; first compound 1 µM): 0.799 | relative viability (NCI-H1299; first compound 0.01 µM): 1 | relative viability (NCI-H1299; first compound 0.03162 µM): 0.912 | relative viability (NCI-H1299; first compound 0.1 µM): 1.02 | relative viability (NCI-H1299; first compound 0.3162 µM): 0.972 | relative viability (NCI-H1299; first compound 1 µM): 0.89 | relative viability (Calu-6; first compound 0.01 µM): 0.943 | relative viability (Calu-6; first compound 0.03162 µM): 0.784 | relative viability (Calu-6; first compound 0.1 µM): 0.899 | relative viability (Calu-6; first compound 0.3162 µM): 1.02 | relative viability (Calu-6; first compound 1 µM): 0.712
